Legend:
Stat3 = Stat3 phosphorylation in serum starved MS-1 cells; assay type: cell-based, murine; details: growth factor alone
Protocol: FIG. 29 illustrates a chart showing phosphor-Stat3 of serum starved MS-1 cells incubated for 10 min at 37° C. with VEGF-A or IL-6 in the absence or presence of anti-IL-6 mAb or C3aR-A/C5aR-A.
Numerous past studies have linked VEGF with both IL-6 and p-Stat3 our prior studies by ourselves has shown that C5a induces IL-6 and that IL-6 signaling is interconnected with C3aR/C5aR signaling. To determine if the linkage between VEGF and C3aR/C5aR signaling in ECs involves IL-6, we incubated MS-1 ECs with 1) VEGF-A alone, IL-6 alone, or VEGF-A plus anti-IL-6 mAb, or with 2) IL-6 alone or IL-6 plus C3aR-A/C5aR-A, and assayed cell growth. […] The growth induction of ECs of IL-6, like that of VEGF-A, was abolished by C3aR-A/C5aR-A (FIG. 28). Both VEGF-A and IL-6 induced Stat3 phosphorylation and the Stat3 phosphorylation in both cases was abolished by C3aR/C5aR antagonism (FIG. 29). […] These finding thus indicate that VEGF interconnects with C3aR/C5aR signaling via the induction of IL-6 and its activation of Stat3.

MS-1 ECs = assay: Growth of MS-1 ECs with VEGF-A or IL-6; assay type: cell-based, murine; details: IL-6 alone
Protocol: FIG. 27 illustrates plots showing the growth of ECs in response to VEGF induces C3aR/C5aR signaling via an IL-6 and Stat3 dependent mechanism. VEGF-A was added to serum starved MS-1 cells in the absence or presence of anti-IL-6 neutralizing mAb (2 μg/ml) and growth was quantified at 24, […] and 72 hr.
FIG. 28 illustrates plots showing the growth of serum starved MS-1 cells in the absence or presence of C3aR-A/C5aR-A (10 ng/ml each) and IL-6 (10 ng/ml) at 24, 48 and 72 hr.
For studies with bEnd.3 and MS-1 cells, 5×10^4 cells were plated in 24-well plates and allowed to adhere for 24 hr. Following culturing in 0.5% FBS with DMEM for another 24 hours, the cells were treated as described in the FIG. legends. Growth was quantified manually at 24, 48 and 72 hr with trypan blue. At least 95% of cells were viable in all experiments. VEGF-A was used at a concentration of 30 ng/ml, C3a and C5a at 1 ug/ml, and […] at I ug/ml.
Numerous past studies have linked VEGF with both IL-6 and p-Stat3 our prior studies by ourselves has shown that C5a induces IL-6 and that IL-6 signaling is interconnected with C3aR/C5aR signaling. To determine if the linkage between VEGF and C3aR/C5aR signaling in ECs involves IL-6, we incubated MS-1 ECs with 1) VEGF-A alone, IL-6 alone, or VEGF-A plus anti-IL-6 mAb, or with 2) IL-6 alone or IL-6 plus C3aR-A/C5aR-A, and assayed cell growth. […]

ECs = assay: Proliferation of ECs in response to VEGF-A stimulation (thrombin/MMP inhibitors); assay type: cell-based
Source text: (§1) Since some MMPs (MMP-9) is/are constitutively expressed and prothrombin synthesis and secretion might be induced by VEGF-A, prothrombin can cleaved to thrombin by an MMP, e.g., MMP-9 and thrombin, in turn, generates C5a from locally produced C5. The MMP inhibitor alternatively could exert its inhibitory effect on VEGF-A induced EC growth by the pathway that couples C3aR/C5aR signal transduction back to VEGFR2.

T cell = T cell activation in response to anti-CD3/28 stimulation; assay type: cell-based
Source text: as §1

HUVEC = assay: Complement mRNA transcripts in HUVEC by qPCR; assay type: cell-based; details: added C3a or C5a
Protocol: FIG. 33 illustrates charts showing qRT-PCR analysis of C3, factor B and factor D transcripts from HUVEC under hypoxia. A) HUVEC treated with TNF-α, IL-1, and IFN-γ. Blue bars represent samples after treatment. B-C) HUVEC stimulated with C3a (10 ng/ml for 2 hr) or C5a (10 ng/ml for 30 min) Blue bars represent control without C3a/C5a stimulation while red bars represent samples after stimulation. D) HUVEC incubated for 1 hr with FCCP+IAA. Blue bars represent control without hypoxia treatment while yellow bars represent two samples after hypoxia treatment.
We next conversely assessed how transducing C3aR/C5aR signals into ECs affects endogenous EC complement production and whether it is connected with “classical” EC responses. We incubated HUVEC with 1) inflammatory cytokines, 2) the mitochondrial uncoupler protonophore carbonyl cyanide p-(trifluoromethoxy)phenylhydrazone (FCCP)+iodoacetate (IAA) (which mimics hypoxia), or 3) C3a or C5a, after which we assayed complement mRNA transcripts by qPCR. […]
ECs and leukocytes locally synthesize C3/fB/fD/C5 and the elicited C3a/C5a signal through C3aR/C5aR on the same cells to amplify this synthesis. To determine whether ECs locally synthesize AP complement components, we added IL-1/IFN-γ/TNF-α to HUVEC, 1 hr after which we quantified C3 and fB transcripts by qPCR. […]

NIH-3T3 cells [1] = assay: TGF-β1 production and effect in PDGF-AA treated NIH-3T3 cells; assay type: cell-based
Source text: Antagonizing C3aR/C5aR signal transduction induces the synthesis and activation of TGF-β1. We investigated whether TGF-β1 production might underlie the growth suppression connected with C3aR/C5aR blockade. To test this, 1) we assayed supernatants from NIH-3T3 cells treated with PDGF-AA+anti-C3a/anti-C5a mAbs and 2) following removal of anti-C3a/anti-C5a from the mAb treated NIH-3T3 cell cultures (with protein-G beads), we added supernatants without or with anti-TGF-β1 blocking antibody to fresh cultures of PDGF-AA treated NIH-3T3 cells. […] Activation of latent TGF-β1 can be dependent on Thrombospondin 1 (Tsp-1). […] Collectively, these findings indicate that 1) disruption of C3aR/C5aR signaling evokes TGF-β1 production, 2) TGF-β1 enters into an autocrine signaling loop, and 3) C3aR/C5aR signals and TGF-β1 signals oppose each other in regulating PDGF induced growth.

NIH-3T3 cells [2] = assay: C5a ELISA of NIH-3T3 culture supernatants; assay type: cell-based; details: PDGF-AA treated cells
Protocol: FIG. 31 illustrates charts showing: (A) C5a (17 ng/mL) added to NIH-3T3 cells. Bars represent 72 hr counts. (B) PDGF-AA was added to NIH-3T3 cells and a 72 hr culture supernatants were assayed for C5a by ELISA.
PDGF contributes to atherogenesis and plays a central role in neointimal proliferation following EC injury. In view of the growth difference of primary cultured Daf1^−/−, WT, C3aR^−/−C5aR^−/−, and C3^−/−C5^−/−SMCs, we examined whether C3aR/C5aR signals are interconnected with PDGF growth induction. For these studies, we utilized NIH-3T3 fibroblasts (which express PDGFR-αα) in conjunction with PDGF-AA. Following determination of optimal PDGF-AA doses, we incubated 1×10^5 cells/well in triplicate with 30 ng/ml of PDGF-AA±10 ng/ml of C3aR and C5aR antagonists (C3aR-A/C5aR-A), 10 ng/ml of anti-C3a/anti-C5a mAbs or respective controls, after which we quantified cell growth by counting cell numbers over time. […] To directly establish whether C5aR signals augment PDGF-AA growth signaling, we 1) quantified the effect of added C5a one growth, and 2) assayed C5a in culture supernatants of PDGF-AA treated cells. […] Because the dependence of PDGF growth induction on C3aR/C5aR signaling could be indirect, i.e., a consequence of its requirement for viability, we performed cell cycle assays.

C3aR−/−C5aR−/− ECs = assay: Growth of C3aR-/-C5aR-/- primary ECs; assay type: cell-based, mice; details: without or with added C5a

IL-6: cytokine added to MS-1 cells (10 ng/ml)
Stat3 phosphorylation (Stat3): induced
induction of EC growth (MS-1 ECs): comparably to VEGF-A

NC(N)=NCCC[C@H](NC(=O)[C@@H]1CCCN1C(=O)[C@H](N)Cc1ccccc1)C(=O)CCl [PPACK]
proliferation of ECs / VEGF induced EC growth induction (ECs): abolish
T cell activation (T cell): virtually abolish

C3a: complement activation fragment (anaphylatoxin) added to cells
production of AP components by ECs (HUVEC): more AP components
transcription of C3 (HUVEC): increased

PDGF-AA: platelet derived growth factor, 30 ng/ml
suppression of TGF-β1 mRNA transcription (NIH-3T3 cells [1]; RT-PCR of PDGF-AA treated cells): ~3 fold
C5a generation by NIH-3T3 cells (NIH-3T3 cells [2]): amplified

ANGIOMAX: thrombin specific inhibitor
proliferation of ECs / VEGF induced EC growth induction (ECs): abolish
T cell activation (T cell): virtually abolish

TGF-β1: active TGF-β1 elicited in supernatants of mAb treated NIH-3T3 cells
suppression of PDGF-AA induced growth (NIH-3T3 cells [1]; elicited TGF-β1 in transferred supernatants): 5 fold

Cc1cc(C)c(/C=C2\C(=O)Nc3ccccc32)[nH]1 [SU5416]
growth of C3aR−/−C5aR−/− ECs (C3aR−/−C5aR−/− ECs): abolished

Source: US11130801B2, “Method for inhibiting platelet derived growth factor signaling with C3aR or C5aR antibodies” (CASE WESTERN RESERVE UNIVERSITY, priority 2011, dated 2021)
